From patent publication US20240270821A1, “GIP/GLP1/GCG TRI-RECEPTOR AGONISTS AND USES THEREOF” (priority 2023, published 2024)
Where two headings read alike, the source gives them in different places.

Columns and labels:
Format in all cases: cell-based
hGLP-1R [1] = molecular target: T1, hGLP-1R (Homo sapiens, UniProt P43220); test: Functional cAMP activity in the presence of 1% HSA; settings: read-out: cAMP Rel EC50, hGLP-1R
hGIPR [2] = molecular target: T2, hGIPR (Homo sapiens, UniProt P48546); test: Functional cAMP activation in the presence of 0.1% casein (no HSA); settings: read-out: Relative cAMP EC50, hGIPR;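 also: intracellular cAMP rise after 30 min at 37 °C read by HTRF against a standard curve, scaled between buffer alone (0%) and top control ligand concentration (100%), four-parameter fit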
T2 sequence (P48546 22-466): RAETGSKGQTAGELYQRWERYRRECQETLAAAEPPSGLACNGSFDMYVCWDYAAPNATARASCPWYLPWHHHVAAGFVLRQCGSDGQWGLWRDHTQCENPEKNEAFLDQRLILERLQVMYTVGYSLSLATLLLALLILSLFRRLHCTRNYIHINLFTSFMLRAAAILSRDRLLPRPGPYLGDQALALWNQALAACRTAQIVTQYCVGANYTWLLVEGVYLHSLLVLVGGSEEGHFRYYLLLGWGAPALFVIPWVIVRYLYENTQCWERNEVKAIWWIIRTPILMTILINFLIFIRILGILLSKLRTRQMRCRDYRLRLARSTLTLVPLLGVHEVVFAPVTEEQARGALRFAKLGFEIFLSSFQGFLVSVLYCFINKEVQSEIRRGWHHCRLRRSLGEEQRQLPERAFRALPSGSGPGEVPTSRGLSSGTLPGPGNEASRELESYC

hGIPR [3] = molecular target: T2, hGIPR; test: Functional cAMP activity in the presence of 1% HSA; settings: read-out: cAMP Rel EC50, hGIPR
hGcgR = hGcgR (Homo sapiens, UniProt P47871); test: Functional cAMP activation in the presence of 0.1% casein (no HSA); settings: read-out: Relative cAMP EC50, hGcgR;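 also: intracellular cAMP rise after 30 min at 37 °C, read by HTRF against a cAMP standard curve, scaled from buffer only (0%) to maximal control ligand response (100%)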
hGcgR, sequence (P47871 26-477): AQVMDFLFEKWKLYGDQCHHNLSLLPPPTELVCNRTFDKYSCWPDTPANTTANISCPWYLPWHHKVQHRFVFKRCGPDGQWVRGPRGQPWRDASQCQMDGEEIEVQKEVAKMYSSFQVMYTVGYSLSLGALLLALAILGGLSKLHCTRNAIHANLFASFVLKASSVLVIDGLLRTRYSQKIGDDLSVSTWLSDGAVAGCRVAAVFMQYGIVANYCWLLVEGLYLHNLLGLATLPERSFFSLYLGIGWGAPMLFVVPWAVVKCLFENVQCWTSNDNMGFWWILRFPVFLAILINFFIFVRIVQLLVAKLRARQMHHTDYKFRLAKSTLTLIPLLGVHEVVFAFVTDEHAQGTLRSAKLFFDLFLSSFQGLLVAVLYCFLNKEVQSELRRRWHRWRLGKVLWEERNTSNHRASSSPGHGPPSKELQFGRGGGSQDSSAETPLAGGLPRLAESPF

human GcgR = human GcgR (Homo sapiens, UniProt P47871); test: Functional cAMP activity in the presence of 1% HSA; settings: read-out: cAMP Rel EC50, hGcgR
human GcgR, sequence (P47871 26-477): as above

hGLP-1R [4] = molecular target: T1, hGLP-1R; test: Functional cAMP activation in the presence of 0.1% casein (no HSA); settings: read-out: Relative cAMP EC50, hGLP-1R;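 also: intracellular cAMP rise after 30 min at 37 °C read by HTRF, normalized between buffer only (0%) and maximal control ligand (100%), four-parameter variable-slope fit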
[5] = in the presence of 0.1% casein (no HSA), geometric mean

T1 sequence (P43220 24-463): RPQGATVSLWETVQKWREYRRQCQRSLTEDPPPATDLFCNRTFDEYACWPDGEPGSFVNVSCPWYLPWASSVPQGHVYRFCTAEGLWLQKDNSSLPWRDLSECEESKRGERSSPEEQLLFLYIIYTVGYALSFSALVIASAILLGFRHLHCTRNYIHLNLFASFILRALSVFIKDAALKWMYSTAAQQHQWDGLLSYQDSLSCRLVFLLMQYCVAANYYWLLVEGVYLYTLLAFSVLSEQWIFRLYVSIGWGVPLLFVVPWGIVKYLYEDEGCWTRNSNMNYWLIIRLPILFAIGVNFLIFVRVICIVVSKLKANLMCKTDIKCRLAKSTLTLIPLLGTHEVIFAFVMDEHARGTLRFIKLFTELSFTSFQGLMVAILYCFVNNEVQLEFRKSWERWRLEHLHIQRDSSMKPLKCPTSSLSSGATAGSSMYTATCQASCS

Row | EC50 (hGLP-1R [1]; HEK-293 clonal cells expressing hGLP-1R, in the presence of 1% HSA, geometric mean of relative EC50) [nM] | EC50 (human GcgR; HEK-293 clonal cells expressing hGcgR, in the presence of 1% HSA, geometric mean of relative EC50) [nM] | EC50 (hGLP-1R [4]) [nM] | EC50 (hGIPR [2]) [nM] | EC50 (hGcgR) [nM] | SMILES | EC50 (hGLP-1R [1]) [nM] | EC50 (hGIPR [2]; [5]) [nM] | EC50 (hGIPR [3]) [nM] | EC50 (hGcgR; [5]) [nM] | EC50 (human GcgR) [nM] | EC50 (hGLP-1R [4]; [5]) [nM]
1 | – | – | – | – | – | CC[C@H](C)[C@H](NC(=O)[C@H](CC(C)C)NC(=O)[C@H](Cc1ccc(O)cc1)NC(=O)[C@H](CCC(=O)O)NC(=O)[C@@H](NC(=O)[C@H](Cc1ccccc1)NC(=O)[C@H](C)NC(=O)[C@](C)(Cc1ccncc1)NC(=O)[C@H](CCC(N)=O)NC(=O)[C@H](C)NC(=O)[C@H](CCCCNC(=O)COCCOCCNC(=O)CC[C@H](NC(=O)CCCCCCCCCCCCCCCCC(=O)O)C(=O)O)NC(=O)[C@H](CCCCN)NC(=O)[C@H](CC(=O)O)NC(=O)[C@H](CC(C)C)NC(=O)[C@](C)(CC(C)C)NC(=O)[C@H](CCCN)NC(=O)[C@H](CO)NC(=O)[C@H](Cc1ccncc1)NC(=O)[C@H](CC(=O)O)NC(=O)[C@H](CO)NC(=O)[C@@H](NC(=O)[C@H](Cc1ccccc1)NC(=O)[C@@H](NC(=O)CNC(=O)[C@H](CCC(N)=O)NC(=O)C(C)(C)NC(=O)[C@@H](N)Cc1ccc(O)cc1)[C@@H](C)O)[C@@H](C)O)[C@@H](C)CC)C(=O)N[C@@H](CCC(=O)O)C(=O)NCC(=O)NCC(=O)N[C@@H](CCC(=O)O)C(=O)N[C@@H](CO)C(=O)N[C@@H](CO)C(=O)NCC(=O)N[C@@H](C)C(=O)N1CCC[C@H]1C(=O)N1CCC[C@H]1C(=O)N1CCC[C@H]1C(=O)N[C@@H](CO)C(=O)NCC(=O)N[C@@H](CO)C(N)=O [Example 791] | 980 | 0.979 | 143 | 2.36 | 456 | –
2 | – | – | – | – | – | CC[C@H](C)[C@H](NC(=O)[C@H](Cc1ccccc1)NC(=O)[C@H](C)NC(=O)C(C)(C)NC(=O)[C@H](CCC(N)=O)NC(=O)[C@H](C)NC(=O)[C@H](CCCCNC(=O)COCCOCCNC(=O)CC[C@H](NC(=O)CCCCCCCCCCCCCCCCC(=O)O)C(=O)O)NC(=O)[C@H](CCCCN)NC(=O)[C@H](CC(=O)O)NC(=O)[C@H](CC(C)C)NC(=O)[C@](C)(CC(C)C)NC(=O)[C@H](CCCN)NC(=O)[C@H](CO)NC(=O)[C@H](Cc1ccccc1)NC(=O)[C@H](CC(=O)O)NC(=O)[C@H](CO)NC(=O)[C@@H](NC(=O)[C@H](Cc1ccccc1)NC(=O)[C@@H](NC(=O)CNC(=O)[C@H](CCC(N)=O)NC(=O)C(C)(C)NC(=O)[C@@H](N)Cc1ccc(O)cc1)[C@@H](C)O)[C@@H](C)O)C(=O)N[C@@H](CCC(=O)O)C(=O)N[C@@H](Cc1ccc(O)cc1)C(=O)N[C@@H](CC(C)C)C(=O)N[C@@H](CC(C)C)C(=O)N[C@@H](CCC(=O)O)C(=O)NC(C)(C)C(=O)NCC(=O)N[C@@H](CCC(=O)O)C(=O)N[C@@H](CO)C(=O)N[C@@H](CO)C(=O)NCC(=O)N[C@@H](C)C(=O)N1CCC[C@H]1C(=O)N1CCC[C@H]1C(=O)N1CCC[C@H]1C(=O)N[C@@H](CO)C(=O)NCC(=O)N[C@@H](CCC(=O)O)C(N)=O [Example 246] | 845 | 0.106 | – | 2.38 | 639 | 3.91
3 | – | – | – | – | – | CC[C@H](C)[C@H](NC(=O)[C@H](CC(C)C)NC(=O)[C@H](Cc1ccc(O)cc1)NC(=O)[C@H](CCC(=O)O)NC(=O)[C@@H](NC(=O)[C@H](Cc1ccccc1)NC(=O)[C@H](C)NC(=O)[C@](C)(Cc1ccncc1)NC(=O)[C@H](CCC(N)=O)NC(=O)[C@H](C)NC(=O)[C@H](CCCCNC(=O)COCCOCCNC(=O)CC[C@H](NC(=O)CCCCCCCCCCCCCCCCC(=O)O)C(=O)O)NC(=O)[C@H](CCCCN)NC(=O)[C@H](CC(=O)O)NC(=O)[C@H](CC(C)C)NC(=O)[C@](C)(CC(C)C)NC(=O)[C@H](CCC(N)=O)NC(=O)[C@H](CO)NC(=O)[C@H](Cc1ccncc1)NC(=O)[C@H](CC(=O)O)NC(=O)[C@H](CO)NC(=O)[C@@H](NC(=O)[C@H](Cc1ccccc1)NC(=O)[C@@H](NC(=O)CNC(=O)[C@H](CCC(N)=O)NC(=O)C(C)(C)NC(=O)[C@@H](N)Cc1ccc(O)cc1)[C@@H](C)O)[C@@H](C)O)[C@@H](C)CC)C(=O)N[C@@H](CCC(=O)O)C(=O)NCC(=O)NCC(=O)N[C@@H](CCC(=O)O)C(=O)N[C@@H](CO)C(=O)N[C@@H](CO)C(=O)NCC(=O)N[C@@H](C)C(=O)N1CCC[C@H]1C(=O)N1CCC[C@H]1C(=O)N1CCC[C@H]1C(=O)N[C@@H](CO)C(=O)NCC(=O)N[C@@H](CO)C(N)=O [Example 793] | 559 | 0.834 | – | 3.79 | 1660 | 3.19
4 | 24.5 | 311 | – | – | – | CC[C@H](C)[C@H](NC(=O)[C@H](Cc1ccccc1)NC(=O)[C@H](C)NC(=O)C(C)(C)NC(=O)[C@H](C)NC(=O)[C@H](C)NC(=O)[C@H](CCCCNC(=O)COCCOCCNC(=O)CC[C@H](NC(=O)CCCCCCCCCCCCCCCCC(=O)O)C(=O)O)NC(=O)[C@H](CCCCN)NC(=O)[C@H](CC(=O)O)NC(=O)[C@H](CC(C)C)NC(=O)[C@](C)(CC(C)C)NC(=O)[C@@H](NC(=O)[C@H](CO)NC(=O)[C@H](Cc1ccc(O)cc1)NC(=O)[C@H](CC(=O)O)NC(=O)[C@H](CO)NC(=O)[C@@H](NC(=O)[C@](C)(Cc1ccccc1F)NC(=O)[C@@H](NC(=O)CNC(=O)[C@H](CCC(N)=O)NC(=O)C(C)(C)NC(=O)[C@@H](N)Cc1c[nH]cn1)[C@@H](C)O)[C@@H](C)O)[C@@H](C)CC)C(=O)N[C@@H](CCC(=O)O)C(=O)N[C@@H](Cc1ccc(O)cc1)C(=O)N[C@@H](CC(C)C)C(=O)N[C@H](C(=O)N[C@@H](CCC(=O)O)C(=O)N[C@H](C(=O)NCC(=O)N1CCC[C@H]1C(=O)N[C@@H](CO)C(=O)N[C@@H](CO)C(=O)NCC(=O)N[C@@H](CCC(=O)O)C(=O)N1CCC[C@H]1C(=O)N1CCC[C@H]1C(=O)N1CCC[C@H]1C(=O)N[C@@H](CO)C(=O)N[C@@H](CCC(=O)O)C(=O)NCC(N)=O)[C@@H](C)O)[C@@H](C)CC [Example 291] | – | 0.26 | – | 1.88 | – | 0.22
5 | – | – | 0.431 | 0.0297 | 1.6 | CC[C@H](C)[C@H](NC(=O)[C@H](Cc1ccccc1)NC(=O)[C@H](C)NC(=O)C(C)(C)NC(=O)[C@H](CCC(N)=O)NC(=O)[C@H](C)NC(=O)[C@H](CCCCNC(=O)CC[C@H](NC(=O)CC[C@H](NC(=O)CCCCCCCCCCCCCCCCC(=O)O)C(=O)O)C(=O)O)NC(=O)[C@H](CCCCN)NC(=O)[C@H](CC(=O)O)NC(=O)[C@H](CC(C)C)NC(=O)[C@H](CC(C)C)NC(=O)[C@@H](NC(=O)[C@H](CO)NC(=O)[C@H](Cc1ccc(O)cc1)NC(=O)[C@H](CC(=O)O)NC(=O)[C@H](CO)NC(=O)[C@@H](NC(=O)[C@](C)(Cc1ccccc1F)NC(=O)[C@@H](NC(=O)CNC(=O)[C@H](CCC(N)=O)NC(=O)C(C)(C)NC(=O)[C@@H](N)Cc1ccc(O)cc1)[C@@H](C)O)[C@@H](C)O)[C@@H](C)CC)C(=O)N[C@@H](CCC(=O)O)C(=O)N[C@@H](Cc1ccc(O)cc1)C(=O)N[C@@H](CC(C)C)C(=O)N[C@@H](CCC(=O)O)C(=O)N[C@@H](CCC(=O)O)C(=O)NCC(=O)NCC(=O)N1CCC[C@H]1C(=O)N[C@@H](CO)C(=O)N[C@@H](CO)C(=O)NCC(=O)N[C@@H](CCC(=O)O)C(=O)N1CCC[C@H]1C(=O)N1CCC[C@H]1C(=O)N1CCC[C@H]1C(=O)N[C@@H](CO)C(N)=O [Example 432] | 41.7 | – | – | – | 384 | –
6 | – | – | – | – | – | CC[C@H](C)[C@H](NC(=O)[C@H](Cc1ccccc1)NC(=O)[C@H](C)NC(=O)[C@](C)(Cc1ccncc1)NC(=O)[C@H](CCC(N)=O)NC(=O)[C@H](C)NC(=O)[C@H](CCCCNC(=O)CC[C@H](NC(=O)CC[C@H](NC(=O)CCCCCCCCCCCCCCCCC(=O)O)C(=O)O)C(=O)O)NC(=O)[C@H](CCCN)NC(=O)[C@H](CC(=O)O)NC(=O)[C@H](CC(C)C)NC(=O)[C@](C)(CC(C)C)NC(=O)[C@H](CCC(N)=O)NC(=O)[C@H](CO)NC(=O)[C@H](Cc1ccncc1)NC(=O)[C@H](CC(=O)O)NC(=O)[C@H](CO)NC(=O)[C@@H](NC(=O)[C@H](Cc1ccccc1)NC(=O)[C@@H](NC(=O)CNC(=O)[C@H](CCC(N)=O)NC(=O)C(C)(C)NC(=O)[C@@H](N)Cc1ccc(O)cc1)[C@@H](C)O)[C@@H](C)O)C(=O)N[C@@H](CCC(=O)O)C(=O)N[C@@H](Cc1ccc(O)cc1)C(=O)N[C@@H](CC(C)C)C(=O)N[C@H](C(=O)N[C@@H](CCC(=O)O)C(=O)N[C@H](C)C(=O)NCC(=O)N1CCC[C@H]1C(=O)N[C@@H](CO)C(=O)N[C@@H](CO)C(=O)NCC(=O)N[C@@H](C)C(=O)N1CCC[C@H]1C(=O)N1CCC[C@H]1C(=O)N1CCC[C@H]1C(=O)N[C@@H](CCC(=O)O)C(=O)NCC(=O)N[C@@H](CO)C(N)=O)[C@@H](C)CC [Example 1021] | 174 | 0.22 | – | 4.39 | 588 | 1.3
